From ChEMBL document CHEMBL1201862, “PubChem BioAssay data set” (2004)
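All cell lines were grown in 96-well plates and treated with compound for 48 hours. GI50: concentration for 50% inhibition of growth.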 The source made the active and inactive calls. Rule as the data show it: active = GI50 up to about 1.1 µM and inactive = higher.

Columns and labels:
Experiment in all cases: NCI-60 cell line screen, 48 h
NCI-H226 = tested on: NCI-H226
TK-10 = tested on: TK-10
HOP-62 = tested on: HOP-62
SF-268 = tested on: SF-268
HCT-15 = tested on: HCT-15
Malme-3M = tested on: Malme-3M
SK-MEL-28 = tested on: SK-MEL-28
SNB-75 = tested on: SNB-75
M14 = tested on: M14
SK-OV-3 = tested on: SK-OV-3
EKVX = tested on: EKVX
SK-MEL-2 = tested on: SK-MEL-2
KM12 = tested on: KM12
LOX IMVI = tested on: LOX IMVI
SF-295 = tested on: SF-295
ACHN = tested on: ACHN
RXF 393 = tested on: RXF 393
UACC-62 = tested on: UACC-62
SK-MEL-5 = tested on: SK-MEL-5

| Compound | GI50 (NCI-H226) | GI50 (TK-10) | GI50 (HOP-62) | GI50 (SF-268) | GI50 (HCT-15) [µM] | GI50 (Malme-3M) | GI50 (SK-MEL-28) | GI50 (SNB-75) | GI50 (M14) | GI50 (SK-OV-3) | GI50 (EKVX) | GI50 (SK-MEL-2) | GI50 (KM12) | GI50 (LOX IMVI) | GI50 (SF-295) | GI50 (ACHN) | GI50 (RXF 393) | GI50 (UACC-62) | GI50 (SK-MEL-5) |
| --- | --- | --- | --- | --- | --- | --- | --- | --- | --- | --- | --- | --- | --- | --- | --- | --- | --- | --- | --- |
| CCCCCC(/C=C/c1ncccc1OCCCCCC(=O)O)=N\NC1=NCCN1 | > 100 µM (inactive) | > 100 µM (inactive) | > 100 µM (inactive) | > 100 µM (inactive) | > 100 | > 100 µM (inactive) | > 100 µM (inactive) | 40.2 µM (inactive) | > 100 µM (inactive) | > 100 µM (inactive) | > 100 µM (inactive) | 48.9 µM (inactive) | 54.3 µM (inactive) | 74 µM (inactive) | > 100 µM (inactive) | > 100 µM (inactive) | > 100 µM (inactive) | 44.1 µM (inactive) | – |
| CCC(=O)OCN(C)c1nc(N(C)COC(=O)CC)nc(N(C)COC(=O)CC)n1 | 85.5 µM (inactive) | > 100 µM (inactive) | > 100 µM (inactive) | – | 21.4 | 32.6 µM (inactive) | 64.9 µM (inactive) | > 100 µM (inactive) | 28.1 µM (inactive) | > 100 µM (inactive) | – | 18.2 µM (inactive) | 34.5 µM (inactive) | 18 µM (inactive) | > 100 µM (inactive) | – | 10.9 µM (inactive) | 18.6 µM (inactive) | 22.9 µM (inactive) |
| O=C1CC2(CCC(O)(c3cccc4ccccc34)C(C(=O)c3cccc4ccccc34)C2)C(=O)c2ccccc2N1 (stereo not given) | > 100 µM (inactive) | 29.1 µM (inactive) | 10.5 µM (inactive) | 15.7 µM (inactive) | 26.4 | > 100 µM (inactive) | 11.1 µM (inactive) | 10.7 µM (inactive) | 29.8 µM (inactive) | 46.3 µM (inactive) | 28.9 µM (inactive) | > 100 µM (inactive) | – | 32.8 µM (inactive) | 12.6 µM (inactive) | – | 4.1 µM (inactive) | 81.5 µM (inactive) | 24.8 µM (inactive) |
| COc1cc(C(=O)C2CC3(CCC2(O)c2cc(OC)c(OC)c(OC)c2)CC(=O)Nc2ccccc2C3=O)cc(OC)c1OC (stereo not given) | > 100 µM (inactive) | > 100 µM (inactive) | > 100 µM (inactive) | > 100 µM (inactive) | 50.6 | > 100 µM (inactive) | > 100 µM (inactive) | 24.5 µM (inactive) | 91.2 µM (inactive) | > 100 µM (inactive) | > 100 µM (inactive) | 89.9 µM (inactive) | – | 67.6 µM (inactive) | 98.2 µM (inactive) | – | 99.5 µM (inactive) | > 100 µM (inactive) | 21.3 µM (inactive) |
| NC1C(O)C(O)C(CO)OC1n1cc(F)c(=O)[nH]c1=O (stereo not given) | > 100 µM (inactive) | > 100 µM (inactive) | – | > 100 µM (inactive) | > 100 | > 100 µM (inactive) | > 100 µM (inactive) | 91.2 µM (inactive) | – | > 100 µM (inactive) | – | > 100 µM (inactive) | > 100 µM (inactive) | > 100 µM (inactive) | > 100 µM (inactive) | > 100 µM (inactive) | > 100 µM (inactive) | – | > 100 µM (inactive) |
| OCC1OC(n2cnc3c2NC=NC[C@H]3O)C(O)C1O (stereo not given in full) | 173 µM (inactive) | – | > 337 µM (inactive) | > 384 µM (inactive) | 205 | > 355 µM (inactive) | > 450 µM (inactive) | 412 µM (inactive) | – | 234 µM (inactive) | > 450 µM (inactive) | 339 µM (inactive) | > 450 µM (inactive) | 170 µM (inactive) | > 450 µM (inactive) | – | 238 µM (inactive) | > 450 µM (inactive) | > 71.3 µM (inactive) |
| CC(C)c1oc(=O)cc2c1C(O)C1OC(=O)C3(C)C(O)C4OC4C2(C)C13 (stereo not given) [NAGILACTONE] | 2.16 µM (inactive) | – | 2.15 µM (inactive) | 4.09 µM (inactive) | 2.07 | 1.69 µM (inactive) | 1.37 µM (inactive) | 1.92 µM (inactive) | – | 5.2 µM (inactive) | 2.19 µM (inactive) | 2.16 µM (inactive) | 1.72 µM (inactive) | 0.653 µM (active) | 1.65 µM (inactive) | – | 1.62 µM (inactive) | 1.38 µM (inactive) | 0.628 µM (active) |
